Earlier results as cited in US7842720B2, “Anticancer and antiprotozoal dihydroartemisinene and dihydroartemisitene dimers with desirable chemical functionalities” (Elsohly Laboratories, Incorporated, priority 2004, dated 2010).

Tests used:
malaria = conditions: comparison among artemisinin derivatives
[1] = system: chloroquine-sensitive and chloroquine-resistant strains of Plasmodium falciparum

Structure (SMILES)	anti-malarial activity relative to comparator (malaria)	anti-malarial activity [1]
C[C@H]1[C@H](OC(=O)CCC(=O)[O-])O[C@@H]2O[C@@]3(C)CC[C@H]4[C@H](C)CC[C@@H]1[C@@]24OO3.[Na+] [sodium artesunate]	more activity	–
C[C@@H]1CC[C@H]2[C@@H](C)C(=O)O[C@@H]3O[C@@]4(C)CC[C@@H]1[C@]32OO4 [artemisinin]	–	anti-malarial activity
